Results published in EP2265631B1, “NOVEL ANTIMICROBIAL PEPTIDES AND THEIR APPLICATION” (Ustav Organicke Chemie a Biochemie Akademie Ved Ceske …, priority 2008, dated 2009).
Ends that are not written are not given here. Peptide text beside a SMILES is read from it.

Tests used:
Bacilus subtilis = test: Determination of antimicrobial activity (MIC, bacterial growth in LB broth); assay type: cell-based; details: minimum inhibitory concentration (MIC) per method, 37°C, 20 h, read-out: Antimicrobial activity IC50 [µM] B.s.
Method: (§1) Antimicrobial activity was determined as a quantitative minimum inhibitory concentration (MIC) by observing bacterial growth in the presence of different concentrations of tested peptides. Mid-exponential phase bacteria were added to the solutions of the tested antimicrobial peptide at different concentrations (0.5 to 100 µM) in LB broth in multi-well plates. The plates were incubated at 37°C for 20 h while being continuously shaken in a Bioscreen C instrument (Finland). The absorbance was measured at 540 nm every 15 min and each peptide was tested at least 3 times in duplicate. 1.2.10^3 - 7.5.10^3 CFU of bacteria was routinely used in the experiments. Tetracycline in a concentration range of 0.1 - 50 µM was tested as a standard.

Escherichia coli = test: as above; assay type: cell-based; details: minimum inhibitory concentration (MIC) per method, 37°C, 20 h, read-out: Antimicrobial activity IC50 [µM] E. c.
Method: as §1

Pseudomonnas aeruginosa = test: as above; assay type: cell-based; details: minimum inhibitory concentration (MIC) per method, 37°C, 20 h, read-out: Antimicrobial activity IC50 [µM] P.a.
Method: as §1

Staphylococcus aureus = test: as above; assay type: cell-based; details: minimum inhibitory concentration (MIC) per method, 37°C, 20 h, read-out: Antimicrobial activity IC50 [µM] S.a.
Method: as §1

rat red blood cells = test: Determination of hemolytic activity; assay type: cell-based; details: rat red blood cells (5%), 1 h at 37°C, peptides 1-200 µM
Method: The peptides in the concentration (1-200 µM) were incubated with rat red blood cells (5%) for 1 h at 37°C in a physiological solution at a final volume of 0.2 ml. The samples were then centrifuged for 5 min at 250 g, and the absorbance of the supernatant was determined at 540 nm. Supernatants of red blood cells suspended in physiological solution and in 0.2% TRITON X100 in physiological solution served as controls for zero hemolysis (blank) and 100% hemolysis, respectively. Table 3. Antimicrobial and hemolytic activity of melectin (I) and its synthetic analogs of formulas II/1 to II/18

[1] = test system: human cervix carcinoma HeLa S3; test: Cytostatic effect on cancer cells (e.g. MTT test); assay type: cell-based; details: 24-72 h incubation, 50% decrease in cell viability; read-out: IC50 [µM] HeLaS3
Method: (§2) Tumor cells in suspension or adherent cells were incubated under standard conditions in appropriate culture media for 24-72 h with the peptides in 2-40 micromolar concentration. After this time, the number of living cells was determined using routine tests, e.g. MTT test. The IC50 was determined as concentration of peptides, which caused 50% decrease in cell viability in comparison to controls (no peptide present). In preliminary tests mouse lymphocytic leukemia L1210 (CCL 219), CCRF-CEM T lymphoblastoid (human acute lymphoblastic leukemia, CCL 119), human promyelocytic leukemia HL-60 (CCL 240), human cervix carcinoma HeLa S3, rat pheochromocytoma PC12, human colon adenocarcinoma SW480 (CCL-228), and normal rat epithelial cells (IEC-6, CRL-1592) from ATCC (Manassas, VA, USA), were used. […] Table 4. Cytostatic effect of selected peptides on cancer cells

[2] = test system: human colon adenocarcinoma SW480; test: Cytostatic effect on cancer cells (e.g. MTT test); assay type: cell-based; details: 24-72 h incubation, 50% decrease in cell viability
Method: as §2

[3] = test system: human promyelocytic leukemia HL-60; test: Cytostatic effect on cancer cells (e.g. MTT test); assay type: cell-based; details: 24-72 h incubation, 50% decrease in cell viability
Method: as §2

[4] = test system: mouse lymphocytic leukemia L1210; test: Cytostatic effect on cancer cells (e.g. MTT test); assay type: cell-based; details: 24-72 h incubation, 50% decrease in cell viability
Method: as §2

[5] = test system: CCRF-CEM T lymphoblastoid; test: Cytostatic effect on cancer cells (e.g. MTT test); assay type: cell-based, human; details: 24-72 h incubation, 50% decrease in cell viability
Method: as §2

Compound	IC50 (Bacilus subtilis)	IC50 (Escherichia coli)	IC50 (Pseudomonnas aeruginosa)	IC50 (Staphylococcus aureus)	Hemolytic activity (rat red blood cells)	IC50 [1]	IC50 [2]	IC50 [3]	IC50 [4]	IC50 [5]
CC[C@H](C)[C@H](NC(=O)[C@H](CO)NC(=O)[C@H](CC(C)C)NC(=O)[C@H](Cc1ccccc1)NC(=O)CN)C(=O)N[C@@H](CC(C)C)C(=O)N[C@@H](CCCCN)C(=O)N[C@@H](CCCCN)C(=O)N[C@H](C(=O)N[C@@H](CC(C)C)C(=O)N1CCC[C@@H]1C(=O)N[C@@H](CCCCN)C(=O)N[C@H](C(=O)N[C@@H](CCSC)C(=O)N[C@@H](C)C(=O)N[C@@H](Cc1c[nH]cn1)C(=O)N[C@@H](CCSC)C(=O)N[C@@H](CCCCN)C(N)=O)C(C)C)C(C)C [II/15, H-Gly-Phe-Leu-Ser-Ile-Leu-Lys-Lys-Val-Leu-Pro-Lys-Val-Met-Ala-His-Met-Lys-NH2]	1.7 µM	4.2 µM	100 µM	> 100 µM	»200 µM	–	–	–	–	–
CC[C@H](C)[C@H](NC(=O)[C@H](CO)NC(=O)[C@H](CC(C)C)NC(=O)[C@H](Cc1cccc2ccccc12)NC(=O)CN)C(=O)N[C@@H](CC(C)C)C(=O)N[C@@H](CCCCN)C(=O)N[C@@H](CCCCN)C(=O)N[C@H](C(=O)N[C@@H](CC(C)C)C(=O)N1CCC[C@H]1C(=O)N[C@@H](CCCCN)C(=O)N[C@H](C(=O)N[C@@H](CCSC)C(=O)N[C@@H](C)C(=O)N[C@@H](Cc1c[nH]cn1)C(=O)N[C@@H](CCSC)C(=O)N[C@@H](CCCCN)C(N)=O)C(C)C)C(C)C [II/16, H-Gly-1Nal-Leu-Ser-Ile-Leu-Lys-Lys- V al-Leu-Pro-Lys- V al-Met-Ala-His-Met-Lys-NH2] (HELM PEPTIDE1{G.[O=C([C@H](Cc1cccc2ccccc12)N[*:1])[*:2]].L.S.I.L.K.K.V.L.P.K.V.M.A.H.M.K.[am]}$$$$V2.0)	0.4 µM	0.4 µM	17.3 µM	2.5 µM	25 µM	–	–	–	–	–
CCCC[C@H](NC(=O)[C@H](Cc1c[nH]cn1)NC(=O)[C@H](C)NC(=O)[C@H](CCCC)NC(=O)[C@@H](NC(=O)[C@H](CCCCN)NC(=O)[C@@H]1CCCN1C(=O)[C@H](CC(C)C)NC(=O)[C@@H](NC(=O)[C@H](CCCCN)NC(=O)[C@H](CCCCN)NC(=O)[C@H](CC(C)C)NC(=O)[C@@H](NC(=O)[C@H](CO)NC(=O)[C@H](CC(C)C)NC(=O)[C@H](Cc1ccccc1)NC(=O)CN)[C@@H](C)CC)C(C)C)C(C)C)C(=O)N[C@@H](CCCCN)C(N)=O [II/18, H-Gly-Phe-Leu-Ser-Ile-Leu-Lys-Lys-Val-Leu-Pro-Lys-Val-Nle-Ala-His-Nle-Lys-NH2] (HELM PEPTIDE1{G.F.L.S.I.L.K.K.V.L.P.K.V.[Nle].A.H.[Nle].K.[am]}$$$$V2.0)	0.2 µM	0.75 µM	17.3 µM	2.5 µM	–	–	–	–	–	–
CCCC[C@H](NC(=O)[C@H](Cc1cnc[nH]1)NC(=O)[C@H](C)NC(=O)[C@H](CCCC)NC(=O)[C@@H](NC(=O)[C@H](CCCCN)NC(=O)[C@@H]1CCCN1C(=O)[C@H](CC(C)C)NC(=O)[C@@H](NC(=O)[C@H](CCCCN)NC(=O)[C@H](CCCCN)NC(=O)[C@H](CC(C)C)NC(=O)[C@@H](NC(=O)[C@H](CO)NC(=O)[C@H](CC(C)C)NC(=O)[C@H](Cc1ccccc1)NC(=O)CN)[C@@H](C)CC)C(C)C)C(C)C)C(=O)N[C@@H](CCCCN)C(N)=O [II/18, H-Gly-Phe-Leu-Ser-Ile-Leu-Lys-Lys-Val-Leu-Pro-Lys-Val-Nle-Ala-His-Nle-Lys-NH2] (HELM PEPTIDE1{G.F.L.S.I.L.K.K.V.L.P.K.V.[Nle].A.H.[Nle].K.[am]}$$$$V2.0)	–	–	–	–	50 µM	–	–	–	–	–
GFLSILKKVLGKVMAHMK-NH2 [II/3, H-Gly-Phe-Leu-Ser-lle-Leu-Lys-Lys-Val-Leu-Gly-Lys-Val-Met-Ala-His-Met-Lys-NH2]	1.3 µM	1.8 µM	14.4 µM	4.3 µM	41.4 µM	–	–	–	–	–
GFLSILKKVLKVMAHMK-NH2 [II/8, H-Gly-Phe-Leu-Ser-Ile-Leu-Lys-Lys-Val-Leu-... -Lys-Val-Met-Ala-His-Met-Lys-NH2]	0.9 µM	1.8 µM	27.5 µM	5 µM	22.9 µM	–	–	–	–	–
H-FLSILKKVLPKVMAHMK-NH2 [II/9, H-Phe-Leu-Ser-Ile-Leu-Lys-Lys-Val-Leu-Pro-Lys-Val-Met-Ala-His-Met-Lys-NH2]	1.2 µM	9.08 µM	62.1 µM	38.8 µM	>200 µM	–	–	–	–	–
H-GFLSILKKVGPKVMAHMK-NH2 [II/14, H-Gly-Phe-Leu-Ser-Ile-Leu-Lys-Lys-Val-Gly-Pro-Lys-Val-Met-Ala-His-Met-Lys-NH2]	1.4 µM	22.5 µM	80 µM	80 µM	»200 µM	–	–	–	–	–
H-GFLSILKKVL-NH2 [II/13, H-Gly-Phe-Leu-Ser-Ile-Leu-Lys-Lys-Val-Leu-NH2]	2.9 µM	9.1 µM	58.7 µM	10.9 µM	>100 µM	–	–	–	–	–
H-GFLSILKKVLAKVMAHMK-NH2 [II/2, H-Gly-Phe-Leu-Ser-Ile-Leu-Lys-Lys-Val-Leu-Ala-Lys-Val-Met-Ala-His-Met-Lys-NH2]	1.3 µM	1.6 µM	18.3 µM	4.7 µM	29.7 µM	–	–	–	–	–
H-GFLSILKKVLKKVMAHMK-NH2 [II/1, H-Gly-Phe-Leu-Ser-Ile-Leu-Lys-Lys-Val-Leu-Lys-Lys-Val-Met-Ala-His-Met-Lys-NH2]	1.4 µM	1.8 µM	25.3 µM	13.3 µM	27.3 µM	–	–	–	–	–
H-GFLSILKKVLP-NH2 [II/12, H-Gly-Phe-Leu-Ser-Ile-Leu-Lys-Lys-Val-Leu-Pro-NH2]	13 µM	78 µM	> 100 µM	> 100 µM	»200 µM	–	–	–	–	–
H-GFLSILKKVLPKVLAHLK-NH2 [II/5, H-Gly-Phe-Leu-Ser-Ile-Leu-Lys-Lys-Val-Leu-Pro-Lys-Val-Leu-Ala-His-Leu-Lys-NH2]	0.8 µM	1.2 µM	20 µM	5 µM	43.7 µM	–	–	–	–	–
H-GFLSILKKVLPKVMAKMK-NH2 [II/4, H-Gly-Phe-Leu-Ser-Ile-Leu-Lys-Lys-Val-Leu-Pro-Lys-Val-Met-Ala-Lys-Met-Lys-NH2]	0.7 µM	2.1 µM	33.6 µM	16.8 µM	>100 µM	–	–	–	–	–
H-GFLSILKKVLPKVMHAMK-NH2 [II/6, H-Gly-Phe-Leu-Ser-Ile-Leu-Lys-Lys-Val-Leu-Pro-Lys-Val-Met-His-Ala-Met-Lys-NH2]	1.1 µM	2.1 µM	35.1 µM	9.1 µM	150 µM	–	–	–	–	–
H-GFLSILKKVLPKVMKAMK-NH2 [II/7, H-Gly-Phe-Leu-Ser-Ile-Leu-Lys-Lys-Val-Leu-Pro-Lys-Val-Met-Lys-Ala-Met-Lys-NH2]	0.8 µM	1.5 µM	31.7 µM	7.7 µM	70 µM	9.6 µM	12.5 µM	9.1 µM	6.9 µM	8.8 µM
H-GLSILKKVLKKVMAHMK-NH2 [II/17, H-Gly-...-Leu-Ser-Ile-Leu-Lys-Lys-Val-Leu-Lys-Lys-Val-Met-Ala-His-Met-Lys-NH2]	–	–	–	–	»200 µM	–	–	–	–	–
H-LSILKKVLPKVMAHMK-NH2 [II/10, H-Leu-Ser-Ile-Leu-Lys-Lys- Val-Leu-Pro-Lys-Val-Met-Ala-His-Met-Lys-NH2]	7.9 µM	76.2 µM	> 100 µM	> 100 µM	»200 µM	–	–	–	–	–
H-SILKKVLPKVMAHMK-NH2 [II/11, H-Ser-Ile-Leu-Lys-Lys-Val-Leu-Pro-Lys-Val-Met-Ala-His-Met-Lys-NH2]	21.8 µM	> 100 µM	> 100 µM	> 100 µM	»200 µM	–	–	–	–	–
